# From PMC7156458, “Synthetic biology based construction of biological activity-related library of fungal decalin-containing diterpenoid pyrones” (Nature Communications, 2020)
# Target: Aβ42 (Homo sapiens, UniProt P05067)
# Assay: Th-T (thioflavin-T) assay of Aβ42 aggregation
# Assay type: biochemical
# Details: for Th-T assay plate reading, mean of three wells (Supplementary Fig. 47): source data, Ab alone and No Ab as controls
# Aβ42, sequence (P05067 672-713): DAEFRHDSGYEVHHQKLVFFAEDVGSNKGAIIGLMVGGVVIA
structure (smiles),measurement,setting,value
C=C1CC[C@H]2[C@]3(C)C[C@@H](C=C(C)C)O[C@H]3CC[C@]2(C)[C@@H]1Cc1c(OC)oc(CO)c(C)c1=O [Compound 17],"Th-T fluorescence, mean of three wells","Aβ42 aggregation time course, reading M117",3.6742
same,"Th-T fluorescence, mean of three wells","Aβ42 aggregation time course, reading M118",3.663
same,"Th-T fluorescence, mean of three wells","Aβ42 aggregation time course, reading M119",3.652
same,"Th-T fluorescence, mean of three wells","Aβ42 aggregation time course, reading M120",3.6432
same,"Th-T fluorescence, mean of three wells","Aβ42 aggregation time course, reading M121",3.639
same,"Th-T fluorescence, mean of three wells","Aβ42 aggregation time course, reading M122",3.631
same,"Th-T fluorescence, mean of three wells","Aβ42 aggregation time course, reading M123",3.625
same,"Th-T fluorescence, mean of three wells","Aβ42 aggregation time course, reading M124",3.645
same,"Th-T fluorescence, mean of three wells","Aβ42 aggregation time course, reading M125",3.636
same,"Th-T fluorescence, mean of three wells","Aβ42 aggregation time course, reading M126",3.626
same,"Th-T fluorescence, mean of three wells","Aβ42 aggregation time course, reading M127",3.63
same,"Th-T fluorescence, mean of three wells","Aβ42 aggregation time course, reading M128",3.617
same,"Th-T fluorescence, mean of three wells","Aβ42 aggregation time course, reading M129",3.6361
same,"Th-T fluorescence, mean of three wells","Aβ42 aggregation time course, reading M130",3.633
same,"Th-T fluorescence, mean of three wells","Aβ42 aggregation time course, reading M131",3.621
same,"Th-T fluorescence, mean of three wells","Aβ42 aggregation time course, reading M132",3.621
same,"Th-T fluorescence, mean of three wells","Aβ42 aggregation time course, reading M133",3.612
same,"Th-T fluorescence, mean of three wells","Aβ42 aggregation time course, reading M134",3.622
same,"Th-T fluorescence, mean of three wells","Aβ42 aggregation time course, reading M135",3.594
same,"Th-T fluorescence, mean of three wells","Aβ42 aggregation time course, reading M136",3.604
same,"Th-T fluorescence, mean of three wells","Supplementary Fig. 47, reading M137",3.585
same,"Th-T fluorescence, mean of three wells","Supplementary Fig. 47, reading M138",3.583
same,"Th-T fluorescence, mean of three wells","Supplementary Fig. 47, reading M139",3.585
same,"Th-T fluorescence, mean of three wells","Supplementary Fig. 47, reading M140",3.575
same,"Th-T fluorescence, mean of three wells","Supplementary Fig. 47, reading M141",3.571
same,"Th-T fluorescence, mean of three wells","Supplementary Fig. 47, reading M142",3.57
same,"Th-T fluorescence, mean of three wells","Supplementary Fig. 47, reading M143",3.569
same,"Th-T fluorescence, mean of three wells","Supplementary Fig. 47, reading M144",3.562
same,"Th-T fluorescence, mean of three wells","Supplementary Fig. 47, reading M145",3.551
same,"Th-T fluorescence, mean of three wells","Supplementary Fig. 47 source data, measurement M37 of time course",3.249
same,"Th-T fluorescence, mean of three wells","Supplementary Fig. 47 source data, measurement M38 of time course",3.349
same,"Th-T fluorescence, mean of three wells","Supplementary Fig. 47 source data, measurement M39 of time course",3.376
same,"Th-T fluorescence, mean of three wells","Supplementary Fig. 47 source data, measurement M40 of time course",3.376
same,"Th-T fluorescence, mean of three wells","Supplementary Fig. 47 source data, measurement M41 of time course",3.367
same,"Th-T fluorescence, mean of three wells","Supplementary Fig. 47 source data, measurement M42 of time course",3.371
same,"Th-T fluorescence, mean of three wells","Supplementary Fig. 47 source data, measurement M43 of time course",3.406
same,"Th-T fluorescence, mean of three wells","Supplementary Fig. 47 source data, measurement M44 of time course",3.418
same,"Th-T fluorescence, mean of three wells","Supplementary Fig. 47 source data, measurement M45 of time course",3.459
same,"Th-T fluorescence, mean of three wells","Supplementary Fig. 47 source data, measurement M46 of time course",3.456
same,"Th-T fluorescence, mean of three wells","Supplementary Fig. 47 source data, measurement M47 of time course",3.465
same,"Th-T fluorescence, mean of three wells","Supplementary Fig. 47 source data, measurement M48 of time course",3.489
same,"Th-T fluorescence, mean of three wells","Supplementary Fig. 47 source data, measurement M49 of time course",3.497
same,"Th-T fluorescence, mean of three wells","Supplementary Fig. 47 source data, measurement M50 of time course",3.516
same,"Th-T fluorescence, mean of three wells","Supplementary Fig. 47 source data, measurement M51 of time course",3.557
same,"Th-T fluorescence, mean of three wells","Supplementary Fig. 47 source data, measurement M52 of time course",3.55
same,"Th-T fluorescence, mean of three wells","Supplementary Fig. 47 source data, measurement M53 of time course",3.554
same,"Th-T fluorescence, mean of three wells","Supplementary Fig. 47 source data, measurement M54 of time course",3.5687
same,"Th-T fluorescence, mean of three wells","Supplementary Fig. 47 source data, measurement M55 of time course",3.6
same,"Th-T fluorescence, mean of three wells","Supplementary Fig. 47 source data, measurement M56 of time course",3.63
same,"Th-T assay plate reading, mean of three wells (Supplementary Fig. 47)",measurement M1,0.2517
same,"Th-T assay plate reading, mean of three wells (Supplementary Fig. 47)",measurement M2,0.2528
same,"Th-T assay plate reading, mean of three wells (Supplementary Fig. 47)",measurement M3,0.2961
same,"Th-T assay plate reading, mean of three wells (Supplementary Fig. 47)",measurement M4,0.352
same,"Th-T assay plate reading, mean of three wells (Supplementary Fig. 47)",measurement M5,0.4245
same,"Th-T assay plate reading, mean of three wells (Supplementary Fig. 47)",measurement M6,0.4941
same,"Th-T assay plate reading, mean of three wells (Supplementary Fig. 47)",measurement M7,0.5517
same,"Th-T assay plate reading, mean of three wells (Supplementary Fig. 47)",measurement M8,0.6173
same,"Th-T assay plate reading, mean of three wells (Supplementary Fig. 47)",measurement M9,0.6978
same,"Th-T assay plate reading, mean of three wells (Supplementary Fig. 47)",measurement M10,0.9149
same,"Th-T assay plate reading, mean of three wells (Supplementary Fig. 47)",measurement M11,1.381
same,"Th-T assay plate reading, mean of three wells (Supplementary Fig. 47)",measurement M12,1.864
same,"Th-T assay plate reading, mean of three wells (Supplementary Fig. 47)",measurement M13,2.227
same,"Th-T assay plate reading, mean of three wells (Supplementary Fig. 47)",measurement M14,2.461
same,"Th-T assay plate reading, mean of three wells (Supplementary Fig. 47)",measurement M15,2.575
same,"Th-T assay plate reading, mean of three wells (Supplementary Fig. 47)",measurement M16,2.619
same,"Th-T fluorescence, mean of three wells","reading M17, Supplementary Fig. 47 source data",2.658
same,"Th-T fluorescence, mean of three wells","reading M18, Supplementary Fig. 47 source data",2.682
same,"Th-T fluorescence, mean of three wells","reading M19, Supplementary Fig. 47 source data",2.683
same,"Th-T fluorescence, mean of three wells","reading M20, Supplementary Fig. 47 source data",2.726
same,"Th-T fluorescence, mean of three wells","reading M21, Supplementary Fig. 47 source data",2.74
same,"Th-T fluorescence, mean of three wells","reading M22, Supplementary Fig. 47 source data",2.776
same,"Th-T fluorescence, mean of three wells","reading M23, Supplementary Fig. 47 source data",2.7833
same,"Th-T fluorescence, mean of three wells","reading M24, Supplementary Fig. 47 source data",2.808
same,"Th-T fluorescence, mean of three wells","reading M25, Supplementary Fig. 47 source data",2.851
same,"Th-T fluorescence, mean of three wells","reading M26, Supplementary Fig. 47 source data",2.893
same,"Th-T fluorescence, mean of three wells","reading M27, Supplementary Fig. 47 source data",2.879
same,"Th-T fluorescence, mean of three wells","reading M28, Supplementary Fig. 47 source data",2.908
same,"Th-T fluorescence, mean of three wells","reading M29, Supplementary Fig. 47 source data",2.914
same,"Th-T fluorescence, mean of three wells","reading M30, Supplementary Fig. 47 source data",2.944
same,"Th-T fluorescence, mean of three wells","reading M31, Supplementary Fig. 47 source data",2.96
same,"Th-T fluorescence, mean of three wells","reading M32, Supplementary Fig. 47 source data",3.025
same,"Th-T fluorescence, mean of three wells","reading M33, Supplementary Fig. 47 source data",3.031
same,"Th-T fluorescence, mean of three wells","reading M34, Supplementary Fig. 47 source data",3.078
same,"Th-T fluorescence, mean of three wells","reading M35, Supplementary Fig. 47 source data",3.103
same,"Th-T fluorescence, mean of three wells","reading M36, Supplementary Fig. 47 source data",3.12
same,"Th-T fluorescence, mean of three wells","time course, reading M57",3.617
same,"Th-T fluorescence, mean of three wells","time course, reading M58",3.628
same,"Th-T fluorescence, mean of three wells","time course, reading M59",3.637
same,"Th-T fluorescence, mean of three wells","time course, reading M60",3.637
same,"Th-T fluorescence, mean of three wells","time course, reading M61",3.653
same,"Th-T fluorescence, mean of three wells","time course, reading M62",3.653
same,"Th-T fluorescence, mean of three wells","time course, reading M63",3.655
same,"Th-T fluorescence, mean of three wells","time course, reading M64",3.667
same,"Th-T fluorescence, mean of three wells","time course, reading M65",3.662
same,"Th-T fluorescence, mean of three wells","time course, reading M66",3.684
same,"Th-T fluorescence, mean of three wells","time course, reading M67",3.7096
same,"Th-T fluorescence, mean of three wells","time-course reading M97, Supplementary Fig. 47 source data",3.715
same,"Th-T fluorescence, mean of three wells","time-course reading M98, Supplementary Fig. 47 source data",3.727
same,"Th-T fluorescence, mean of three wells","time-course reading M99, Supplementary Fig. 47 source data",3.7169
same,"Th-T fluorescence, mean of three wells","time-course reading M100, Supplementary Fig. 47 source data",3.715
same,"Th-T fluorescence, mean of three wells","time-course reading M101, Supplementary Fig. 47 source data",3.715
same,"Th-T fluorescence, mean of three wells","time-course reading M102, Supplementary Fig. 47 source data",3.7
same,"Th-T fluorescence, mean of three wells","time-course reading M103, Supplementary Fig. 47 source data",3.686
same,"Th-T fluorescence, mean of three wells","time-course reading M104, Supplementary Fig. 47 source data",3.695
same,"Th-T fluorescence, mean of three wells","time-course reading M105, Supplementary Fig. 47 source data",3.722
same,"Th-T fluorescence, mean of three wells","time-course reading M106, Supplementary Fig. 47 source data",3.704
same,"Th-T fluorescence, mean of three wells","time-course reading M107, Supplementary Fig. 47 source data",3.71
same,"Th-T fluorescence, mean of three wells","time-course reading M108, Supplementary Fig. 47 source data",3.718
same,"Th-T fluorescence, mean of three wells","time-course reading M109, Supplementary Fig. 47 source data",3.713
same,"Th-T fluorescence, mean of three wells","time-course reading M110, Supplementary Fig. 47 source data",3.7
same,"Th-T fluorescence, mean of three wells","time-course reading M111, Supplementary Fig. 47 source data",3.699
same,"Th-T fluorescence, mean of three wells","time-course reading M112, Supplementary Fig. 47 source data",3.698
same,"Th-T fluorescence, mean of three wells","time-course reading M113, Supplementary Fig. 47 source data",3.697
same,"Th-T fluorescence, mean of three wells","time-course reading M114, Supplementary Fig. 47 source data",3.674
same,"Th-T fluorescence, mean of three wells","time-course reading M115, Supplementary Fig. 47 source data",3.682
same,"Th-T fluorescence, mean of three wells","time-course reading M116, Supplementary Fig. 47 source data",3.669
